Test results from patent US20250122147A1, “ARYL CYCLOHEXANEDIONE DERIVATIVE OR SALT THEREOF, PEST CONTROL AGENT CONTAINING SAME, AND METHOD FOR USE THEREOF” (ADEKA Corporation, priority 2021, published 2025).

System: Plutella xylostella
Assay: Insecticidal test against Plutella xylostella
Conditions: 500 ppm drug solution; Chinese cabbage seedlings with eggs immersed about 30 sec; six days after immersion; 25° C.
From the text: Six days after the immersion in the drug solution, the number of surviving insects was examined. […] In triplicate using 10 per plot.

Compound	corrected mortality, rating of assessment
Cc1ccccc1C1CC(=O)C(C(=O)Nc2ccc(F)cc2)=C(O)C1 (stereo not drawn) [1-1]	D or higher
O=C1CC(c2cc(C(F)(F)F)cc(C(F)(F)F)c2)CC(O)=C1C(=O)Nc1ccc(F)cc1 (stereo not drawn) [1-2]	D or higher
O=C1CC(c2ccc(C(F)(F)F)c(Cl)c2)CC(O)=C1C(=O)Nc1ccc(F)cc1 (stereo not drawn) [1-3]	D or higher
O=C1CC(c2ccc(C(F)(F)F)cc2)CC(O)=C1C(=O)Nc1ccc(F)cc1 (stereo not drawn) [1-6]	D or higher
N#Cc1ccc(NC(=O)C2=C(O)CC(c3ccc(C(F)(F)F)cc3)CC2=O)cc1 (stereo not drawn) [1-7]	D or higher
COc1ccc(NC(=O)C2=C(O)CC(c3ccc(C(F)(F)F)cc3)CC2=O)cc1 (stereo not drawn) [1-8]	D or higher
O=C1CC(c2ccc(C(F)(F)F)cc2)CC(O)=C1C(=O)NC1CCCCC1 (stereo not drawn) [1-11]	D or higher
O=C1CC(c2ccc(C(F)(F)F)cc2)CC(O)=C1C(=O)NCc1ccccc1 (stereo not drawn) [1-12]	D or higher
Cc1ccc(NC(=O)C2=C(O)CC(c3ccc(C(F)(F)F)cc3)CC2=O)cc1 (stereo not drawn) [1-15]	D or higher
Cc1cc(Cl)ccc1NC(=O)C1=C(O)CC(c2ccc(C(F)(F)F)cc2)CC1=O (stereo not drawn) [1-16]	D or higher
O=C1CC(c2ccc(C(F)(F)F)cc2)CC(O)=C1C(=O)Nc1ccc(F)cc1F (stereo not drawn) [1-17]	D or higher
O=C1CC(c2ccc(C(F)(F)F)cc2)CC(O)=C1C(=O)Nc1c(F)cccc1F (stereo not drawn) [1-18]	D or higher
O=C1CC(c2ccc(C(F)(F)F)cc2)CC(O)=C1C(=O)Nc1ccc(F)c(F)c1 (stereo not drawn) [1-19]	D or higher
O=C1CC(c2ccc(C(F)(F)F)cc2)CC(O)=C1C(=O)Nc1cccc(Cl)c1 (stereo not drawn) [1-21]	D or higher
O=C1CC(c2ccc(C(F)(F)F)cc2)CC(O)=C1C(=O)Nc1ccc(Cl)cc1Cl (stereo not drawn) [1-22]	D or higher
O=C1CC(c2ccc(C(F)(F)F)cc2)CC(O)=C1C(=O)Nc1c(Cl)cccc1Cl (stereo not drawn) [1-23]	D or higher
O=C1CC(c2ccc(C(F)(F)F)cc2)CC(O)=C1C(=O)Nc1cccc(C(F)(F)F)c1 (stereo not drawn) [1-30]	D or higher
N#Cc1cccc(NC(=O)C2=C(O)CC(c3ccc(C(F)(F)F)cc3)CC2=O)c1 (stereo not drawn) [1-34]	D or higher
O=C1CC(c2ccc(C(F)(F)F)cc2)CC(O)=C1C(=O)Nc1cccc([N+](=O)[O-])c1 (stereo not drawn) [1-35]	D or higher
CC(=O)c1ccc(NC(=O)C2=C(O)CC(c3ccc(C(F)(F)F)cc3)CC2=O)cc1 (stereo not drawn) [1-36]	D or higher
O=C1CC(c2ccc(C(F)(F)F)cc2)CC(O)=C1C(=O)Nc1ccccc1F (stereo not drawn) [1-38, N-(2-fluorophenyl)-5-hydroxy-3-oxo-4′-(trifluoromethyl)-1,2,3,6-tetrahydro-[1,1′-biphenyl]-4-carboxamide]	D or higher
O=C1CC(c2ccc(C(F)(F)F)cc2)CC(O)=C1C(=O)Nc1cccc2ccccc12 (stereo not drawn) [1-39]	D or higher
O=C1CC(c2ccc(C(F)(F)F)cc2)CC(O)=C1C(=O)Nc1cccs1 (stereo not drawn) [1-40]	D or higher
O=C1CC(c2ccc(C(F)(F)F)cc2)CC(O)=C1C(=O)Nc1cccc(F)c1 (stereo not drawn) [1-43]	D or higher

Compound	corrected mortality, rating of assessment
O=C1CC(c2ccc(C(F)(F)F)cc2)CC(O)=C1C(=O)Nc1c(F)c(F)c(F)c(F)c1F (stereo not drawn) [1-45]	D or higher
CSc1ccc(NC(=O)C2=C(O)CC(c3ccc(C(F)(F)F)cc3)CC2=O)cc1 (stereo not drawn) [1-49]	D or higher
O=C1CC(c2ccc(C(F)(F)F)cc2)CC(O)=C1C(=O)Nc1ccc([S+]([O-])C(F)(F)F)cc1 (stereo not drawn) [1-52]	D or higher
O=C1CC(c2ccc(C(F)(F)F)cc2)CC(O)=C1C(=O)Nc1ccc(S(=O)(=O)C(F)(F)F)cc1 (stereo not drawn) [1-53]	D or higher
O=C1CC(c2ccc(C(F)(F)F)cc2)CC(O)=C1C(=O)Nc1ccc(Oc2ccccc2)cc1 (stereo not drawn) [1-54]	D or higher
O=C1CC(c2ccc(C(F)(F)F)cc2)CC(O)=C1C(=O)Nc1ccc2c(c1)OCO2 (stereo not drawn) [1-55]	D or higher
N#Cc1ccc(C2CC(=O)C(C(=O)Nc3ccc(F)cc3)=C(O)C2)cc1 (stereo not drawn) [1-61]	D or higher
NC(=O)c1ccc(C2CC(=O)C(C(=O)Nc3ccc(F)cc3)=C(O)C2)cc1 (stereo not drawn) [1-62]	D or higher
Cc1ccc(C2CC(=O)C(C(=O)Nc3ccc(F)cc3)=C(O)C2)cc1 (stereo not drawn) [1-63]	D or higher
O=C1CC(c2ccc(OC(F)(F)F)cc2)CC(O)=C1C(=O)Nc1ccc(F)cc1 (stereo not drawn) [1-65]	D or higher
O=C1CC(c2ccc(SC(F)(F)F)cc2)CC(O)=C1C(=O)Nc1ccc(F)cc1 (stereo not drawn) [1-66]	D or higher
O=C1CC(c2ccc(C(F)(F)F)nc2)CC(O)=C1C(=O)Nc1ccc(C(F)(F)F)cc1 (stereo not drawn) [1-69]	D or higher
O=C1CC(c2ccc(C(F)(F)F)nc2)CC(O)=C1C(=O)Nc1ccc(OC(F)(F)F)cc1 (stereo not drawn) [1-70]	D or higher
O=C1CC(c2ccc(C(F)(F)F)nc2)CC(O)=C1C(=O)Nc1ccc(Cl)cc1 (stereo not drawn) [1-71]	D or higher
O=C1CC(c2cccs2)CC(O)=C1C(=O)Nc1cccs1 (stereo not drawn) [1-75]	D or higher
Cc1ccc(C2CC(=O)C(C(=O)Nc3ccc(F)cc3)=C(O)C2)s1 (stereo not drawn) [1-76]	D or higher
O=C1CC(c2ccc(C(F)(F)F)c(Cl)c2)CC(O)=C1C(=S)Nc1ccc(C(F)(F)F)cc1 (stereo not drawn) [1-77]	D or higher
O=C1CC(c2ccc(C(F)(F)F)cc2)CC(O)=C1C(=S)Nc1ccc(F)cc1 (stereo not drawn) [1-81]	D or higher
O=C1CC(c2ccc(C(F)(F)F)cc2)CC(O)=C1C(=S)Nc1ccccc1 (stereo not drawn) [1-93]	D or higher
O=C1CC(c2ccc(C(F)(F)F)cc2)CC(O)=C1C(=S)Nc1ccccc1F (stereo not drawn) [1-94]	D or higher
O=C1CC(c2ccc(C(F)(F)F)cc2)CC(O)=C1C(=S)Nc1cccc(F)c1 (stereo not drawn) [1-95]	D or higher
O=C1CC(c2ccc(C(F)(F)F)cc2)CC(O)=C1C(=S)Nc1cccc(C(F)(F)F)c1 (stereo not drawn) [1-99]	D or higher
N#Cc1ccc(NC(=S)C2=C(O)CC(c3ccc(C(F)(F)F)cc3)CC2=O)cc1 (stereo not drawn) [1-100]	D or higher
O=C1CC(c2ccc(C(F)(F)F)cc2)CC(O)=C1C(=S)Nc1ccc(F)cn1 (stereo not drawn) [1-108]	D or higher

Compound	corrected mortality, rating of assessment
CC1(c2ccc(C(F)(F)F)cc2)CC(=O)C(C(=S)Nc2ccc(F)cc2)=C(O)C1 (stereo not drawn) [1-140]	D or higher
O=C1CC(c2ccc(C(F)(F)F)cc2)CC(O)=C1C(=O)Nc1ccc(C(F)(F)F)cn1 (stereo not drawn) [1-142]	D or higher
O=C1CC(c2ccc(C(F)(F)F)cc2)CC(O)=C1C(=O)NC1CC1 (stereo not drawn) [1-144]	D or higher
O=C1CC(c2ccc(Cl)s2)CC(O)=C1C(=O)Nc1ccc(F)cc1 (stereo not drawn) [1-145]	D or higher
O=C1CC(c2ccc(C(F)(F)F)cc2)CC(O)=C1C(=O)Nc1ccc(F)nc1 (stereo not drawn) [1-146]	D or higher
O=C1CC(c2ccc(C(F)(F)F)cc2)CC(O)=C1C(=O)Nc1ccnc(F)c1 (stereo not drawn) [1-147]	D or higher
Cc1ccc(C2CC(=O)C(C(=O)Nc3ccc(F)cn3)=C(O)C2)cc1 (stereo not drawn) [1-148]	D or higher
O=C1CC(c2ccc(C(F)(F)F)nc2)CC(O)=C1C(=O)Nc1ccnc(F)c1 (stereo not drawn) [1-151]	D or higher
O=C1CC(c2ccc(C(F)(F)F)cc2)CC(O)=C1C(=O)Nc1ncc(F)cn1 (stereo not drawn) [1-155]	D or higher
O=C1CC(c2ccc(C(F)(F)F)cc2)CC(O)=C1C(=O)Nc1cccc2ncccc12 (stereo not drawn) [1-156]	D or higher
O=C1CC(c2ccc(C(F)(F)F)cc2)CC(O)=C1C(=O)Nc1ccc(F)nn1 (stereo not drawn) [1-162]	D or higher
CS(=O)(=O)c1ccc(C2CC(=O)C(C(=O)Nc3ccc(F)cn3)=C(O)C2)cc1 (stereo not drawn) [1-165]	D or higher
Cn1ccc(NC(=O)C2=C(O)CC(c3ccc(C(F)(F)F)cc3)CC2=O)n1 (stereo not drawn) [1-167]	D or higher
O=C1CC(c2ccc(C(F)(F)F)cc2)CC(O)=C1C(=O)Nc1ccc(S(F)(F)(F)(F)F)cc1 (stereo not drawn) [1-184]	D or higher
O=C1CC(c2ccc([N+](=O)[O-])cc2)CC(O)=C1C(=O)Nc1ccc(F)cc1 (stereo not drawn) [1-207]	D or higher
CSc1ccc(C2CC(=O)C(C(=O)Nc3ccc(F)cc3)=C(O)C2)cc1 (stereo not drawn) [1-208]	D or higher
O=C1CC(c2ccc(S(=O)(=O)C(F)(F)F)cc2)CC(O)=C1C(=O)Nc1ccc(F)cc1 (stereo not drawn) [1-209]	D or higher
CS(=O)(=O)c1ccc(C2CC(=O)C(C(=O)Nc3ccc(F)cc3)=C(O)C2)cc1 (stereo not drawn) [1-210]	D or higher
O=C1CC(c2ccc([S+]([O-])C(F)(F)F)cc2)CC(O)=C1C(=O)Nc1ccc(F)cc1 (stereo not drawn) [1-211]	D or higher
C[S+]([O-])c1ccc(C2CC(=O)C(C(=O)Nc3ccc(F)cc3)=C(O)C2)cc1 (stereo not drawn) [1-212]	D or higher
O=C1CC(c2ccc(SC(F)(F)F)cc2)CC(O)=C1C(=O)Nc1ccc(F)cc1 (stereo not drawn) [1-213]	D or higher
O=C1CC(c2ccc3c(c2)OCO3)CC(O)=C1C(=O)Nc1ccc(F)cc1 (stereo not drawn) [1-222]	D or higher
O=C1CC(c2cnco2)CC(O)=C1C(=O)Nc1ccc(F)cc1 (stereo not drawn) [1-223]	D or higher
O=C1CC(c2ccc(Br)cn2)CC(O)=C1C(=S)Nc1ccc(F)cc1 (stereo not drawn) [1-229]	D or higher
